Laboratory results from US5843449A, “Proteins and novel peptides derived from autoantigen for use in immunotherapy of autoimmune diseases” (Akzo Nobel N.V., priority 1996, dated 1998).
pIC50: −log10 of the molar value. Where two headings read alike, the source gives them in different places. Residues, ends and D or L forms follow the SMILES beside them.

Columns and labels:
[1] = target: T1, DR4Dw4 (DRB1*0401) HLA-DR molecules (Homo sapiens, UniProt P01903+P01911, A100K/A169T/F76Y/I96L/K127E/L162R/M171V/N62H/P40V/Q125Y/R42H/S133A/S149N/S66Y/V115G/V209L/W38E); test: HLA-DR peptide binding assay (competition with biotinylated marker peptide), DR4Dw4; conditions: pH = 5, 50 nM biotin-spacer-IHA(307-319)F marker peptide
T1 construct: endogenous in cells; host or cells: BSM, EBV-transformed B-cell line

[2] = target: DR4Dw14 HLA-DR molecules; test: HLA-DR peptide binding assay (competition with biotinylated marker peptide), DR4Dw14; parameters: species or system human; conditions: pH = 5, 50 nM biotin-spacer-IHA(307-319)F marker peptide
[3] = test system: PBMC from RA patients; test: Proliferative responses of PBMC from RA patients (3H-thymidine); assay type: cell-based, human; conditions: 10% autologous serum
Experimental: Peripheral blood mononuclear cells (PBMC) from patients who were diagnosed as suffering from RA according to the American Rheumatism Association (ARA) criteria (Arnett et al., Arthritis Rheum. 31:315, 1988) were collected.
(§1) PBMC obtained from heparinized venous peripheral blood were isolated by standard centrifugation on a Ficoll-Paque gradient. […] Cultures were incubated in a total volume of 210 μl for 7 days at 37° C. in a humidified atmosphere of 5% CO2. Cultures were pulsed during the last 18 hours with 0.25 μCi^3 H-thymidine.

[4] = test system: PBMC from healthy donors; test: Proliferative responses of PBMC from healthy donors (3H-thymidine); assay type: cell-based, human; conditions: 10% autologous serum
Experimental: PBMC's from healthy donors carrying the DR4Dw4 (DRB1*0401) or the DR1 specificity were collected as a control.
as §1

CC(C)[C@H](N)C(=O)NCC(=O)N[C@@H](Cc1ccc(O)cc1)C(=O)N[C@@H](CC(=O)O)C(=O)N[C@@H](CC(=O)O)C(=O)N[C@@H](CCC(N)=O)C(=O)N[C@@H](CCC(=O)O)C(=O)N[C@@H](CO)C(=O)N[C@H](C(=O)N[C@@H](CCCCN)C(=O)N[C@@H](CO)C(=O)N[C@@H](CCCCN)C(=O)N[C@H](C(=O)O)C(C)C)C(C)C [Peptide 3] (H-VGYDDQESVKSKV-OH)
6: Proliferative response, stimulation index (SI) ([3]; RA patient 215-0 (HR), disease state III-IV, peptide 100 μg/l) | Proliferative response, stimulation index (SI) ([3]; RA patient 240-0 (HR), disease state II-III, peptide 100 μg/l) | Proliferative response, stimulation index (SI) ([3]; RA patient 273-0 (HR), disease state IV, peptide 100 μg/l)
9: Proliferative response, stimulation index (SI) ([3]; RA patient 242-0 (HR), disease state I, peptide 25 μg/l)
≥ 4.30: pIC50 ([2]; SDS-PAGE, visual inspection, read-out: ^R IC50, DR4Dw14, SDS-PAGE)
< 1: Proliferative response, stimulation index (SI) ([3]; RA patient 272-0 (HR), disease state III-IV, peptide 10 μg/l) | Proliferative response, stimulation index (SI) ([3]; RA patient 272-0 (HR), disease state III-IV, peptide 100 μg/l) | Proliferative response, stimulation index (SI) ([3]; RA patient 276-0 (HR), disease state IV, burnt out, peptide 10 μg/l) | Proliferative response, stimulation index (SI) ([4]; healthy donor 156-03 (NR), peptide 100 μg/ml) | Proliferative response, stimulation index (SI) ([4]; healthy donor 235-01 (NR), peptide 10 μg/ml) | Proliferative response, stimulation index (SI) ([4]; healthy donor 236-01 (NR), peptide 100 μg/ml) | Proliferative response, stimulation index (SI) ([4]; healthy donor 237-0 (NR), peptide 10 μg/ml) | Proliferative response, stimulation index (SI) ([4]; healthy donor 241-0 (NR), peptide 10 μg/ml) | Proliferative response, stimulation index (SI) ([4]; healthy donor 241-0 (NR), peptide 100 μg/ml) | Proliferative response, stimulation index (SI) ([4]; healthy donor 241-01 (R), peptide 10 μg/ml)
< 2: Proliferative response, stimulation index (SI) ([3]; RA patient 191-03 (HR), disease state IV, peptide 100 μg/l) | Proliferative response, stimulation index (SI) ([4]; healthy donor 155-03 (NR), peptide 10 μg/ml) | Proliferative response, stimulation index (SI) ([4]; healthy donor 168.02 (NR), peptide 10 μg/ml) | Proliferative response, stimulation index (SI) ([4]; healthy donor 168.02 (NR), peptide 100 μg/ml) | Proliferative response, stimulation index (SI) ([4]; healthy donor 235-0 (NR), peptide 100 μg/ml) | Proliferative response, stimulation index (SI) ([4]; healthy donor 235-01 (NR), peptide 100 μg/ml)
6.64: pIC50 ([1]; DOT Blot, densitometer, read-out: ^R IC50, DR4Dw4, DOT Blot)
< 5.00: pIC50 ([2]; DOT Blot, densitometer, read-out: ^R IC50, DR4Dw14, DOT Blot)
6.00: pIC50 ([1]; SDS-PAGE, visual inspection, read-out: ^R IC50, DR4Dw4, SDS-PAGE)
3: Proliferative response, stimulation index (SI) ([3]; RA patient 215-0 (HR), disease state III-IV, peptide 25 μg/l) | Proliferative response, stimulation index (SI) ([3]; RA patient 242-0 (HR), disease state I, peptide 100 μg/l)
2: Proliferative response, stimulation index (SI) ([3]; RA patient 240-0 (HR), disease state II-III, peptide 25 μg/l)
1: Proliferative response, stimulation index (SI) ([3]; RA patient 191-03 (HR), disease state IV, peptide 10 μg/l) | Proliferative response, stimulation index (SI) ([3]; RA patient 243-0 (R), disease state III, peptide 10 μg/l) | Proliferative response, stimulation index (SI) ([3]; RA patient 243-0 (R), disease state III, peptide 100 μg/l) | Proliferative response, stimulation index (SI) ([3]; RA patient 247-0 (R), disease state III, peptide 10 μg/l) | Proliferative response, stimulation index (SI) ([3]; RA patient 248-0 (R), disease state III, peptide 10 μg/l) | Proliferative response, stimulation index (SI) ([3]; RA patient 248-0 (R), disease state III, peptide 100 μg/l) | Proliferative response, stimulation index (SI) ([3]; RA patient 273-0 (HR), disease state IV, peptide 10 μg/l) | Proliferative response, stimulation index (SI) ([3]; RA patient 275-0 (HR), disease state III, peptide 10 μg/l) | Proliferative response, stimulation index (SI) ([3]; RA patient 275-0 (HR), disease state III, peptide 100 μg/l) | Proliferative response, stimulation index (SI) ([3]; RA patient 276-0 (HR), disease state IV, burnt out, peptide 100 μg/l) | Proliferative response, stimulation index (SI) ([3]; RA patient 280-0 (HR), disease state IV, burnt out, peptide 10 μg/l) | Proliferative response, stimulation index (SI) ([3]; RA patient 280-0 (HR), disease state IV, burnt out, peptide 100 μg/l) | Proliferative response, stimulation index (SI) ([4]; healthy donor 155-03 (NR), peptide 100 μg/ml) | Proliferative response, stimulation index (SI) ([4]; healthy donor 156-03 (NR), peptide 10 μg/ml) | Proliferative response, stimulation index (SI) ([4]; healthy donor 157-03 (NR), peptide 10 μg/ml) | Proliferative response, stimulation index (SI) ([4]; healthy donor 157-03 (NR), peptide 100 μg/ml) | Proliferative response, stimulation index (SI) ([4]; healthy donor 157-04 (R), peptide 10 μg/ml) | Proliferative response, stimulation index (SI) ([4]; healthy donor 168-03 (NR), peptide 10 μg/ml) | Proliferative response, stimulation index (SI) ([4]; healthy donor 168-03 (NR), peptide 100 μg/ml) | Proliferative response, stimulation index (SI) ([4]; healthy donor 169-02 (NR), peptide 10 μg/ml) | Proliferative response, stimulation index (SI) ([4]; healthy donor 169-02 (NR), peptide 100 μg/ml) | Proliferative response, stimulation index (SI) ([4]; healthy donor 230-01 (NR), peptide 10 μg/ml) | Proliferative response, stimulation index (SI) ([4]; healthy donor 230-01 (NR), peptide 100 μg/ml) | Proliferative response, stimulation index (SI) ([4]; healthy donor 235-0 (NR), peptide 10 μg/ml) | Proliferative response, stimulation index (SI) ([4]; healthy donor 236-01 (NR), peptide 10 μg/ml) | Proliferative response, stimulation index (SI) ([4]; healthy donor 237-0 (NR), peptide 100 μg/ml) | Proliferative response, stimulation index (SI) ([4]; healthy donor 237-01 (NR), peptide 10 μg/ml) | Proliferative response, stimulation index (SI) ([4]; healthy donor 237-01 (NR), peptide 100 μg/ml) | Proliferative response, stimulation index (SI) ([4]; healthy donor 238-01 (NR), first line so labelled, peptide 10 μg/ml) | Proliferative response, stimulation index (SI) ([4]; healthy donor 238-01 (NR), first line so labelled, peptide 100 μg/ml) | Proliferative response, stimulation index (SI) ([4]; healthy donor 238-01 (NR), second line so labelled, peptide 10 μg/ml) | Proliferative response, stimulation index (SI) ([4]; healthy donor 238-01 (NR), second line so labelled, peptide 100 μg/ml) | Proliferative response, stimulation index (SI) ([4]; healthy donor 241-01 (R), peptide 100 μg/ml)
